Source: patent publication US4904593A (priority 1986, dated 1990)
Like-named read-outs stand apart in the source and are kept apart here.

Assays:
purified esterase [1] = test: Hydrolysis activity of the esterase to substrates, pH-stat (Example 6, Table 1); type: biochemical, Bacillus sp. DC-1; details: 100 mM Tris-HCl pH 9.0, emulsified with 0.2% polyvinyl alcohol, ethyl butyrate = 100
Protocol: (§1) Also, the hydrolysis activities of the present esterase to choline ester, cholesterol ester, and thiol ester were determined.
(§2) In Table 1, the hydrolysis activity is expressed in relative activity (%) based on the hydrolysis activity of the present esterase to ethyl butyrate taken as 100. Each substrate was used after it was emulsified with 0.2% polyvinyl alcohol. In Table 2, hydrolysis activities to choline ester and cholesterol ester were observed by the use of the Cholinesterase B-test (Wako) and Free-Cholesterol B-test (Wako), respectively, and hydrolysis activity to thiol ester was based on increase in absorbance at 412 nm with a spectrophotometer in which glutathione, a standard substance, and 5,5'-dithiobis(2-nitrobenzoic acid) (DTNB) were employed. The activity is expressed in mole numbers of choline, cholesterol, and CoA to be liberated per minute.

purified esterase [2] = test: Hydrolysis activity to thiol ester, DTNB absorbance at 412 nm (Table 2); type: biochemical, Bacillus sp. DC-1; details: for Activity: substrate 50 μM, CoA liberated per minute; for Substrate specificity (esterase active or not): summary of properties, thiol esters
Protocol: as §1, §2

purified esterase [3] = test: Hydrolysis activity to cholesterol ester, Free-Cholesterol B-test (Table 2); type: biochemical, Bacillus sp. DC-1; details: substrate 1,300 μM; cholesterol liberated per minute
Protocol: as §1, §2

purified esterase [4] = type: biochemical, Bacillus sp. DC-1
[5] = test system: esterase from Pseudomonas aeruginosa; details: cited from earlier work

Compound: CCCCCCCCCCCCCCCC(=O)OCC(CO)OC(=O)CCCCCCCCCCCCCCC (centres unmarked) [1,2-dipalmitoyl glycerol]
- Relative activity (%) (purified esterase [1]; substrate 5 mM): 0.2%

Compound: CCCCCCCCCCCCCCCC(=O)OCC(O)COC(=O)CCCCCCCCCCCCCCC [1,3-dipalmitoyl glycerol]
- Relative activity (%) (purified esterase [1]; substrate 2 mM): 0%

Compound: CCCCCCCCCCCCCCCC(=O)OCC(O)CO (centres unmarked) [1-palmitoyl glycerol]
- Relative activity (%) (purified esterase [1]; substrate 5 mM): 3.0%

Compound: CC(=O)SCCNC(=O)CCNC(=O)[C@H](O)C(C)(C)COP(=O)(O)OP(=O)(O)OC[C@H]1O[C@@H](n2cnc3c(N)ncnc32)[C@H](O)[C@@H]1OP(=O)(O)O [Acetyl CoA]
- Activity (purified esterase [2]): 0 nmol/min
- Substrate specificity (esterase active or not) (purified esterase [2]): not

Compound: CC(=O)O[C@H]1CC[C@@]2(C)C(=CC[C@H]3[C@@H]4CC[C@H]([C@H](C)CCCC(C)C)[C@@]4(C)CC[C@@H]32)C1 [Cholesterol acetate]
- Activity (purified esterase [3]): 0 nmol/min

Compound: CCCCC/C=C\C/C=C\CCCCCCCC(=O)O[C@H]1CC[C@@]2(C)C(=CC[C@H]3[C@@H]4CC[C@H]([C@H](C)CCCC(C)C)[C@@]4(C)CC[C@@H]32)C1 [Cholesterol linolate]
- Activity (purified esterase [3]): 0 nmol/min

Compound: CCCC(=O)OCC [Ethyl butyrate]
- Relative activity (%) (purified esterase [1]; substrate 20 mM): 100.0%

Compound: CCCCCCCCCCCCCCCC(=O)OC(C)C [Isopropyl palmitate]
- Relative activity (%) (purified esterase [1]; substrate 20 mM): 1.7%

Compound: O=S(=O)(F)Cc1ccccc1 [PMSF, phenylmethylsulfonylfluoride]
- Inactivation of the esterase (purified esterase [4]): Completely inactivated
- Remaining activity(%) (purified esterase [4]; 80 µM): 1.5%

Compound: CCCCCCCCCCCCCCCC(=O)SCCNC(=O)CCNC(=O)[C@H](O)C(C)(C)COP(=O)(O)OP(=O)(O)OC[C@H]1O[C@@H](n2cnc3c(N)ncnc32)[C@H](O)[C@@H]1OP(=O)(O)O [Palmitoyl CoA]
- Activity (purified esterase [2]): 5.4 nmol/min
- Substrate specificity (esterase active or not) (purified esterase [2]): Active

Compound: C[C@H](CCC(=O)O)[C@H]1CC[C@H]2[C@@H]3CC[C@@H]4C[C@H](O)CC[C@]4(C)[C@H]3C[C@H](O)[C@]12C [Sodium deoxycholate]
- Remaining activity(%) (purified esterase [4]): 76.2%
- Decrease of activity (purified esterase [4]; purified esterase, pH 9, 10 min, 1000 µM): about 25%

Compound: CCCCCCCCCCCCOS(=O)(=O)[O-].[Na+] [Sodium lauryl sulfate]
- Remaining activity(%) (purified esterase [4]): 32.2%
- Decrease of activity (inactivation) (purified esterase [4]; purified esterase, pH 9, 10 min, 5000 µM): about 70%
- Inactivation of the esterase from Pseudomonas aeruginosa [5]: not inactivated

Compound: CC(=O)OCC(COC(C)=O)OC(C)=O [Triacetin]
- Relative activity (%) (purified esterase [1]; substrate 20 mM): 14.1%

Compound: CCCC(=O)OCC(COC(=O)CCC)OC(=O)CCC [Tributylin]
- Relative activity (%) (purified esterase [1]; substrate 20 mM): 56.6%

Compound: CCCCCCCCCCCCCCCC(=O)OCC(COC(=O)CCCCCCCCCCCCCCC)OC(=O)CCCCCCCCCCCCCCC [Tripalmitin]
- Relative activity (%) (purified esterase [1]; substrate 6 mM): 1.1%

Compound: Tritonx-100
- Remaining activity(%) (purified esterase [4]): 101.5%

Compound: Tween-80
- Remaining activity(%) (purified esterase [4]): 130.8%
